From patent publication US11773081B2, “Pharmaceutical composition for preventing or treating wound, comprising indirubin derivative as active ingredient” (CK Regeon Inc., priority 2018, dated 2023)
Entries after “also recorded” stand apart in the source; their conditions may differ.

Key:
Type in all cases: in vivo
mouse acute wound [1] = experiment: Wound healing and collagen synthesis in mouse acute wound (Test Example 2)
Description: The wound healing-promoting effect of the indirubin derivatives prepared in Examples 1 and 2, the indirubin derivative of Comparative Example 1 (10) and EGF, known as an existing wound healing agent, as a positive control group was investigated through animal experiments.
The hair on the back of 7-week-old C3H mouse that entered the resting period was removed and a 1.5×1.5 cm^2 wound was made on the hair-removed region. 20 μL of a vehicle (10% DMSO, 45% ethanol, 18% propylene glycol, 27% water) and the indirubin derivative of Comparative Example 1 (10) were applied to a control group and a comparison group, respectively, once daily for 12 days. For the positive control group, 100 μM EGF was applied once daily for 12 days. For a first test group, 20 μL of the indirubin derivative of Example 2 (A3051) was applied once daily for 12 days. For a second test group, 20 μL of the indirubin derivative of Example 1 (A3334) was applied once daily for 12 days.
The tissue of each experimental mouse was fixed by immersing in 4% paraformaldehyde, embedded in paraffin and then sliced into 4 μm thickness. The sliced tissue was deparaffinized, rehydrated and then stained with Masson's trichrome and Picrosirius red for evaluation of the degree of collagen synthesis. For Masson's trichrome staining, a slide was placed in Weigert's iron hematoxylin solution for 10 minutes and in Biebrich scarlet-acid fuchsin and aniline blue for 5 minutes each. For Picrosirius red staining, a slide was placed in Weigert's solution for 8 minutes and in Picrosirius red for 1 hour.

diabetic wound = experiment: Effect of treating diabetic wound (Test Example 9); conditions: diabetes-induced mouse
Description: 3-week-old male C57BL/6N mice (Koatech, South Korea) were used. After accustoming the mice for a week to normal feed, high-fat diet (Product Data—D12492; 60% kcal, hereinafter referred to as HFD) was given for 4 weeks. Then, a diabetes-induced animal model was prepared by intraperitoneally injecting 40 mg/kg streptozocin (Sigma) once daily for a week. The mice were kept in cages maintained at constant temperature (22±2° C.) and relative humidity (40-60%) with light/dark cycles of 12/12 hours.
6 mice of the normal control group and 6 mice per test group of the diabetes-induced animal model of Test Example 7 were prepared. The hair on the back was removed and a 0.8×0.8 cm^2 wound was made on the hair-removed region.
For the normal control group, only 20 μL of an emulsion solution (Kollipore®EL:Tween 80:PEG 400 at a mixing weight ratio of 80:6:14) was applied to the wound site once daily for 14 days. For the negative control group, only 20 μL of the emulsion solution (Kollipore®EL:Tween 80:PEG 400 at a mixing weight ratio of 80:6:14) was applied to the wound site once daily for 14 days. For the positive control group (VPA), 20 μL of a composition prepared by mixing 500 mM VPA in an emulsion solution was applied to the wound site once daily for 14 days.
For the first test group, 20 μL of A3334 (Example 1) was applied to the wound site once daily for 14 days. For the second test group, 20 μL of A3051 (Example 2) was applied to the wound site once daily for 14 days. Then, the wound site of each group was photographed and the wound area was measured (FIG. 14). On day 14, after euthanizing the mouse with carbon dioxide, the wound site tissue was harvested and the histological structure was observed.
Specifically, the wound site tissue obtained from the normal control group, the negative control group, the positive control group or the first or second test group was fixed by immersing in 4% paraformaldehyde, embedded in paraffin and then sliced into 4 μm thickness. The sliced tissue was deparaffinized, rehydrated and then stained with hematoxylin (purple) and eosin (pink) for observation of histological structure.
Specifically, the wound site tissue obtained from the normal control group, the negative control group, the positive control group or the first or second test group was fixed by immersing in 4% paraformaldehyde, embedded in paraffin and then sliced into 4 μm thickness. The sliced tissue was deparaffinized, rehydrated and then stained with Van Gieson's stain and Masson's trichrome for observation of histological structure. For the Van Gieson's staining, the sliced tissue was immersed in Weigert's solution for 10 minutes and in picrofuchsin solution for 2 minutes. For the Masson's trichrome staining, the sliced tissue was immersed in Weigert's iron hematoxylin solution for 10 minutes and in Biebrich scarlet-acid fuchsin and Aniline blue for 5 minutes each.
Specifically, the wound site tissue obtained from the normal control group, the negative control group, the positive control group or the first and second test groups was fixed by immersing in 4% paraformaldehyde and angiogenesis was observed.

mouse acute wound [2] = experiment: Wound healing effect of extract and indirubin derivative mixtures in mouse acute wound (Test Example 6); conditions: mouse acute wound tissue, fluorescence staining
Description: Wound healing-promoting effect was investigated after treating an animal model with the indirubin derivative of Example 1 (0.5 mM), the indirubin derivative of Example 2 (0.5 mM) or the mixtures of Examples 12 and 13 (0.5 mM indirubin derivative mixed with 1 μg/mL Euodia sutchuenensis Dode extract).
The hair on the back of 7-week-old C3H mouse that entered the resting period was removed and a 1.5×1.5 cm^2 wound was made on the hair-removed region. A sample was applied to a positive control group, once daily for 12 days. After measuring wound size of the experimental animal on days 0 and 12, the wound tissue was fixed by immersing in 4% paraformaldehyde, embedded in paraffin and then sliced into 4 μm thickness. The sliced tissue was deparaffinized, rehydrated and then the degree of re-epithelialization was compared. Masson's trichrome staining and Picrosirius red staining were conducted for evaluation of the degree of collagen synthesis. For Masson's trichrome staining, a slide was immersed in Weigert's iron hematoxylin solution for 10 minutes and in Biebrich scarlet-acid fuchsin and aniline blue for 5 minutes each. […] The sliced skin tissue was fluorescence-stained using β-catenin, PCNA, keratin 14 and collagen I antibodies and was observed using a fluorescence microscope (FIG. 9a). […]

[3] = C3H mouse acute wound, once daily for 12 days, vs EGF

COc1ccc2c(c1)/C(=C1/Nc3ccccc3/C1=N\O)C(=O)N2 [Example 1, 5-methoxylindirubin-3′-oxime]
quantity of collagen (Masson's trichrome, Picrosirius red, van Gieson's stain) (mouse acute wound [1]; C3H mouse acute wound tissue, vs control group, Comparative Example 1, positive control group): remarkably increases the quantity of collagen
re-epithelialization of acute wound (mouse acute wound [1]; [3]): re-epithelialized comparably to or faster than the positive control group EGF
scar-reducing effect, repair of the epidermal layer of skin (mouse acute wound [1]; [3]): repairing the epidermal layer of skin without remaining scars
wound repair effect as compared to the positive control group EGF (mouse acute wound [1]; C3H mouse, 1.5×1.5 cm^2 wound, 20 μL once daily for 12 days, EGF 100 μM, listed as A3334): slightly superior wound repair effect; also recorded: slightly better wound repair effect
angiogenesis around the wound site (diabetic wound): increased angiogenesis
healing of the wound site (diabetic wound; 0.8×0.8 cm^2 wound, 20 μL once daily for 14 days, VPA 500 mM): healing of the wound site was promoted similarly to the normal control group
re-epithelialization (H&E) (diabetic wound; 14 days): re-epithelialization occurred quickly
collagen synthesis (Van Gieson's stain, Masson's trichrome) (diabetic wound; vs normal, negative and positive control group (VPA)): increased collagen synthesis
expression of β-catenin, PCNA, keratin 14 and collagen I (mouse acute wound [2]): slightly lower as compared to the positive control group
